This passage reports ED50, MIC and degraded results from patent publication EP1222194B1, “7-ACYLAMINO-3-HETEROARYLTHIO-3-CEPHEM CARBOXYLIC ACID ANTIBIOTICS AND PRODRUGS THEREOF” (priority 1999, dated 2001).

SMILES strings stand for the structures. ≈ marks a conversion by molar mass, not a printed value. A value given as a limit tells only on which side of the number the result lay.

The subject of data set [1] is S. aureus ATCC 13709 (Smith diffuse). Nature of the data set: Murine model for lethal bacteremic peritonitis (septicemia). To be noted: Staphylococcus aureus, ATCC13709, sc; mice, S. aureus ATCC 13709 ip; subcutaneous treatment at 0 and 2 hrs post-challenge; probit method; no unit given for ED50 (doses in mg/kg); read-out: Efficacy in murine septicemia ED50. In kind it is in vivo, mice. As to the method:
10 mice/group were injected intraperitoneally with 2.98x10^7 cfu S. aureus ATCC 13709 (Smith diffuse) and treated at 0 and 2hrs post-challenge with serial two-fold doses of new cephalosporin antibiotic, imipenem and vancomycin subcutaneously in order to determine the ED50. Male Swiss-Webster mice weighing originally 24.2 - 26.1 g were obtained from Charles Rivers Labs, Hollister, CA. Mice were housed 10 per cage and given free access to water and mouse chow.
Staphylococcus aureus ATCC 13709 (Smith diffuse) was grown overnight at 37 °C in Brain-heart Infusion broth (BHIB). The following morning, it was subcultured to fresh BHIB and incubated for 4-5h at 37 °C. The log-phase growth cells were washed once with physiological saline and adjusted to the desired concentration by correlation of absorbency at OD 600 nm with predetermined plate counts (NCCLS, 1994). The cell suspension was mixed with an equal volume of sterile 14% hog-gastric mucin (2). Inoculum was kept in an ice bath until used (<1h).
Mice were challenged via an injection of 0.5 mL bacterial suspension intraperitoneally. The bacterial challenge was 2.98 x 10^7 cfu/mouse.
Imipenem (Primaxin IV; Lot 7294A), vancomycin (Vancocin; Lot 8MU60W), and new cephalosporin antibiotic were prepared by serial two-fold dilutions to concentrations of 0.078 - 0.005 mg/mL, 1.2 - 0.075 mg/mL, 0.3 - 0.02 mg/mL, 0.3 - 0.02 mg/mL and 0.3 - 0.02 mg/mL respectively in sterile water (1). All antibiotics were administered subcutaneously in 0.1 mL volumes at 0 and 2 hours post-challenge. Concentrations of all compounds are based on the weight of the bioactive ingredients.
The 50% effective dose (ED50) was calculated by the probit method (3) utilizing a program entitled Probit (Nycomed-Salutar).

Data set [2] deals with E. faecium A491 (Amp^R). Nature of the data set: Broth microdilution MIC (NCCLS). In kind it is cell-based. The settings on record: Enterococcus faecium, Mueller-Hinton Broth, 24 h at 35 °C. The method, then:
(§1) Compounds were evaluated for antimicrobial activity against a panel of bacterial strains using a broth microdilution assay performed as recommended by the NCCLS (1). The minimum inhibitory concentration (MIC) was defined as the lowest concentration of drug which prevented the growth of the bacteria. The following 16 organisms constituted the primary panel of evaluation:
(§2) For this primary panel, the assay was performed in Mueller-Hinton Broth (MHB) with a final bacterial inoculum of 5 x 10^5 CFU/mL (from an early-log phase culture) and a final volume of 100 µL. Control drugs, including imipenem, vancomycin, Penicillin G, dicloxacillin (vs. MSSA ATCC29213 only), and new compounds were prepared at a concentration equivalent to 2-fold the desired final concentration. Dilution of compounds were prepared directly in the plates by serial 2-fold dilution using a multichannel pipette. Positive and negative growth control were included in each plate.
(§3) The bacterial inocula were prepared as follows. For each strain one isolated colony was used to inoculate a volume of 8 mL of Mueller-Hinton broth and these cultures were incubated overnight (20h) at 35 °C in a shaking incubator. At the exception of Enterococcus strains, culture were then diluted 1:10 and allowed to grow for an additional one hour at 35 °C in a shaking incubator. The inocula were prepared by diluting the early log-phase (1h) cultures 1:1000 with fresh Mueller-Hinton broth. E. faecium and E. faecalis were prepared by diluting overnight cultures 1:333 and 1:666, respectively, with fresh Mueller-Hinton broth . A volume of 50 µL of the inocula was added to each well. […] The exact inocula were determined by applying […] of 10-fold serial dilution of the bacterial suspensions on TSA. After overnight incubation at 35 °C, colony forming units were manually counted.
(§4) Microtiter plates were incubated during 24 h at 35 °C and were read using a microtiterplate reader (Molecular Devices) at 650 nm as well as by visual observation using a microtiterplate reading mirror.
(Dilution methods test growth across graded concentrations, often in twofold steps.)

In data set [3] the test system is S. aureus PC1 (Meth^S)(lac^+). Nature of the data set: Broth microdilution MIC (NCCLS). In kind it is cell-based. The settings on record: Staphylococcus aureus, 24 h. As to the method: as §1, §2, §3, §4
The subject of data set [4] is S. aureus ATCC 13709 (Meth^S). Put plainly: Broth microdilution MIC (NCCLS). In kind it is cell-based. The settings on record: Staphylococcus aureus, ATCC13709, Mueller-Hinton Broth, 24 h at 35 °C. As to the method: as §1, §2, §3, §4
The test system of data set [5] is S. aureus ATCC 33593 (Meth^R). Nature of the data set: Broth microdilution MIC (NCCLS). In kind it is cell-based. The settings on record: Staphylococcus aureus, ATCC33593, Mueller-Hinton Broth, 24 h at 35 °C. The method, then: as §1, §2, §3, §4
Data set [6] has as its system S. aureus Col8A(Meth^S)(lac^-). Put plainly: Broth microdilution MIC (NCCLS). In kind it is cell-based. To be noted: Staphylococcus aureus, Mueller-Hinton Broth, 24 h at 35 °C. As to the method:
as §1, §2, §3, §4

Data set [7] has as its system S. aureus ATCC 29213. Put plainly: Broth microdilution MIC (NCCLS). To be noted: Staphylococcus aureus, ATCC29213, Mueller-Hinton Broth, 24 h at 35 °C. In kind it is cell-based. As to the method: as §1, §2, §3, §4
The subject of data set [8] is E. faecium VanA (Van^R). Put plainly: Broth microdilution MIC (NCCLS). In kind it is cell-based. The settings on record: Enterococcus faecium, Mueller-Hinton Broth, 24 h at 35 °C. The method, then: as §1, §2, §3, §4
In data set [9] the test system is S. haemolyticus 05 (Meth^R). Put plainly: Broth microdilution MIC (NCCLS). In kind it is cell-based. To be noted: Staphylococcus haemolyticus, Mueller-Hinton Broth, 24 h at 35 °C. The method, then: as §1, §2, §3, §4
Data set [10] concerns E. faecalis ATCC 29212. Put plainly: Broth microdilution MIC (NCCLS). In kind it is cell-based. To be noted: Enterococcus faecalis, ATCC29212, Mueller-Hinton Broth, 24 h at 35 °C. As to the method:
as §1, §2, §3, §4

Data set [11] concerns P. aeruginosa ATCC 27853. Put plainly: Broth microdilution MIC (NCCLS). In kind it is cell-based. To be noted: Pseudomonas aeruginosa, ATCC27853, Mueller-Hinton Broth, 24 h at 35 °C. The method, then: as §1, §2, §3, §4
The test system of data set [12] is S. aureus 76 (Meth^R)(lac^+). Nature of the data set: Broth microdilution MIC (NCCLS). In kind it is cell-based. The settings on record: Staphylococcus aureus, Mueller-Hinton Broth, 24 h at 35 °C. The method, then: as §1, §2, §3, §4
The test system of data set [13] is E. coli ATCC25992. Nature of the data set: Broth microdilution MIC (NCCLS). In kind it is cell-based. To be noted: Escherichia coli, Mueller-Hinton Broth, 24 h at 35 °C. As to the method:
as §1, §2, §3, §4

Data set [14] concerns E. faecium ATCC 35667. Nature of the data set: Broth microdilution MIC (NCCLS). The settings on record: Enterococcus faecium, ATCC35667, Mueller-Hinton Broth, 24 h at 35 °C. In kind it is cell-based. As to the method: as §1, §2, §3, §4
Data set [15] has as its system S. aureus Spain #356 (Meth^R). Nature of the data set: Broth microdilution MIC (NCCLS). In kind it is cell-based. The settings on record: Staphylococcus aureus, Mueller-Hinton Broth, 24 h at 35 °C. The method, then: as §1, §2, §3, §4
The test system of data set [16] is E. faecalis VanB (Van^R). Put plainly: Broth microdilution MIC (NCCLS). The settings on record: Enterococcus faecalis, Mueller-Hinton Broth, 24 h at 35 °C. In kind it is cell-based. The method, then: as §1, §2, §3, §4
A short description of data set [17]: In vitro stability of compounds in rat serum. In kind it is in vitro ADME. To be noted: % loss after 60 min exposure to rat serum as determined by HPLC; 37 °C. The method, then: In general, compounds from the class of 7-acylamino-3-heteroarylthio-3-cephem carboxylic acids have higher chemical reactivity and lower stability towards chemical or enzymatic decomposition than most typical cephalosporins. […] Results shown in Table 2 represent percentage loss of the initial amount of cephalosporin compound upon 60 min incubation in rat serum.
Procedure for measuring degree of degradation of cephalosporin compounds in rat serum was as follows:
Fresh control rat serum (heparinized and stored frozen) is preincubated at 37 °C for 15 min in a shaking water bath. pH is measured using test strips. 25 µL of a 2 mg/mL solution cephalosporin compound (in water) of is then added to each matrix to make 1000 µL. Solutions were incubated at 37 °C. 100ul of solution was taken out at time = 0, 15, 30, and 60 min post dose and added 200 µL 4% trichloroacetic acid, vortexed, and centrifuged for 10 min at 14,000 rpm in an Eppendorfmicrocentrifuge. 25 µL of each supernatant was injected onto HPLC. Experiment was repeated using 25 µL of a 0.2 mg/mL cephalosporin compound. Degradation is measured as the percentage of HPLC peak area at time t relative to peak area at time 0.
HPLC conditions: Beckman Ultrasphere C18 column. 5u. 4.6mm x 25cm. 1 mL/min of 95% 0.1 M ammonium acetate, pH 6, 5% ACN going to 75% buffer/organic over 20min. UV monitored at 254 and 280 nm.

On to `C[C@@H](O)[C@H]1C(=O)N2C(C(=O)O)=C(SCCN=CN)C[C@H]12` [Imipenem, reference compound], for which the ED50 (usually the midpoint of the dose-response relation) in data set [1] was 0.07 mg/kg. The MIC (usually the smallest concentration in the dilution series that meets the test's criterion for growth inhibition) was above 128 µg/mL in data set [2]; 0.015 µg/mL (≈ 0.0501 µM) in data set [3]; at most 0.008 µg/mL in data set [4]; 32 µg/mL (≈ 107 µM) in [5]; 0.015 µg/mL (≈ 0.0501 µM) in data set [6]; at most 0.008 µg/mL in [7]. The MIC in [8] is 4 µg/mL (≈ 13.4 µM); in data set [9] it was 64 µg/mL (≈ 214 µM); in [10], at most 0.25 µg/mL; in [11] it was 1 µg/mL (≈ 3.34 µM); in data set [12] it was 32 µg/mL (≈ 107 µM); in [13], at most 0.25 µg/mL. Moreover, the values for the MIC in data set [14], in [15] and in data set [16] were 4 µg/mL (≈ 13.4 µM), 32 µg/mL (≈ 107 µM) and 0.5 µg/mL (≈ 1.67 µM), respectively. The degraded at 1 h in data set [17] worked out at 20%.
